US12180307B2, “Interleukin-13 binding cyclic oligopeptides and methods of use thereof” (B.A.I. LABORATORIES, LLC, priority 2022, dated 2024)
Where “and” joins values, the source holds several entries; their conditions need not be identical. Identical values can stand only once. Square brackets hold non-standard residues; d marks the D form. Peptide text beside a SMILES is read from it.

Key:
FIG. 2D = assay: FIG. 2D
Description: Table printed on a drawing sheet, FIG. 2D
The patent's description of the figure: FIG. 2A provides the mass spectrometry (MS) spectrum for Compound 1. FIG. 2B provides the high-performance liquid chromatography (HPLC) chromatogram for Compound 1. FIG. 2C provides surface plasmon resonance (SPR) assay curves showing the binding affinity of Compound 1 for IL-13, the x-axis represents time of reaction and y-axis represents altitude of response (Response Units). FIG. 2D illustrates skin permeation rate of Compound 1 for up to 24 hours. FIG. 2E illustrates average permeability coefficient (Kp) of Compound 1 for 1, 2, 4, 8, 12 and 24 hours.
First reader's note: Substance name is taken from the legend of the plot printed above the table; the values are skin permeation in three replicates, their average and their range.

[1] = Skin permeability, Franz Cell diffusion cell with artificial skin, Transdermal Diffusion Tester, BCA assay; format: in vitro ADME; conditions: for Average Permeation Rate After 1 Hour (%) / Average Permeation Rate After 24 Hours (%): 32° C., 1.0 mg/mL in PBS; for Average Permeation Rate After 1 Hour (%) / Papp at 1 h, 1 mg/mL: after 1 hour; for Papp at 1 h, 1 mg/mL: read-out: Average Permeability Coefficient (Kp) After 1 hour (converted); for Average Permeation Rate After 24 Hours (%) / Papp at 24 h, 1 mg/mL: after 24 hours; for Papp at 24 h, 1 mg/mL: read-out: Average Permeability Coefficient (Kp) After 24 hours
Protocol: As used herein, the term “skin permeation rate” of a cyclic oligopeptide is measured using artificial skin (Start M, Merck), and refers to the percentage of the cyclic oligopeptide that penetrate the artificial skin after certain amount of time. For example, if 60% of the total amount of a cyclic oligopeptide of this disclosure has penetrated the artificial skin after 24 hours, then the skin permeation rate of the cyclic oligopeptide is 60% after 24 hours.
As used herein, the term “skin permeability coefficient (Kp)” refers to the rate at which the cyclic oligopeptide penetrates the skin, as measured using artificial skin (Start M, Merck). In some embodiments, permeability coefficient (Kp)(cm/hr) is calculated with the following equation:
[formula] wherein Q(mg) refers to the total amount of cyclic oligopeptide that pass through the artificial skin within a certain amount of time; A(cm^2) refers to the internal cross-section area of the artificial skin in a diffusion cell; T(hr) refers to the total amount of time of cyclic oligopeptide permeation; and ΔC(mg/mL) refers to the concentration difference of the cyclic oligopeptide between the two sides of the artificial skin. In some embodiments, the diffusion cell is a Franz Cell.
Skin permeability of the cyclic oligopeptides generated in Example 1 was measured using Transdermal Diffusion Tester (TK-12D, Shanghai Kai Kai Industrial Co Ltd) and artificial skin (Start M, Merck). Three parallel experimental groups were set up for each sample. The skin permeability of cyclic oligopeptides was evaluated by the following steps: • 1) 2.0 mg cyclic oligopeptide was weighed and dissolved in 100 μL DMSO. Three parallel experimental groups were set up for each cyclic oligopeptide. The cyclic oligopeptide-containing solution was then slowly added dropwise to 1900 μL 1×PBS solution and mixed evenly to prepare a PBS solution with a final concentration of 1.0 mg/mL cyclic polypeptide. • 2) A magnetron was inserted into a Franz Cell diffusion cell, and an artificial skin was sandwiched in the middle of the diffusion cell with the smooth side of the artificial skin facing up. The diffusion cell was then fixed with clamps after assembly. • 3) 7.75 ml 1×PBS solution were then added to the diffusion cell without generating bubbles in the diffusion cell. The sampling port of the diffusion cell was then sealed with parafilm to reduce evaporation. • 4) The temperature of a Transdermal Diffusion Tester was then set to 32° C., and the magneton speed was set to 180 r/min. • 5) The assembled diffusion cell was then put into the Transdermal Diffusion Tester and preheated for 5-10 mins. • 6) 400 μL of 1.0 mg/mL cyclic oligopeptide solution prepared in step 1) was then added to the upper chamber of the diffusion cell, making it evenly dispersed on the surface of the artificial skin without air bubbles. The top port of the diffusion cell was then covered with parafilm to reduce evaporation. • 7) Starting from the time of adding the cyclic oligopeptide solution, samples of about 0.5 mL of the receiving solution were taken at six time points, 1 h, 2 h, 4 h, 8 h, 12 h and 24 h, using a plastic dropper to take out the samples from the sampling port of the diffusion cell. 0.5 mL of 1×PBS solution was added into the diffusion cell to restore the initial volume of the receiving solution. When sampling, the diffusion cell was tilted appropriately to avoid the generation of bubbles. The samples were then numbered and store at −20° C. • 8) A BCA Assay (Micro BCA Protein Assay Kit, Thermo Scientific) was conducted to measure the concentration of cyclic oligopeptide in samples obtained in step 7) (Actual Concentration of the cyclic oligopeptide at the particular time point). Three parallel groups were used. The weight of cyclic oligopeptide in each sample obtained in step 7) equals to Actual Concentration×0.5 mL. • 9) Permeation rate of each cyclic oligopeptide at each time point was calculated according to the following equation: […]

Human IL-13 = Human IL-13 (Homo sapiens, UniProt P35225); assay: Surface plasmon resonance (SPR) binding assay, BIAcore 8K plus, immobilized Fc-tagged IL-13; conditions: 25° C., human IL-13 with Fc-tag immobilized on CM5 chip, read-out: Binding Affinity (KD) for IL-13
Protocol: A SPR assay was conducted to determine the binding affinity of the cyclic oligopeptides generated in Example 1 for IL-13 using a BIAcore 8K plus instrument (GE Healthcare). Human IL-13 with an Fc-tag was immobilized onto the surfaces of Series S Sensor CM5 (GE Healthcare) chips in the range of 5000 resonance units (RU). The binding kinetics were performed at 25° C. with a flow rate of 30 μL/min. The cyclic oligopeptides were analyzed in running buffer comprising 20 mM PBS, 2.7 mM KCl, […], 0.0500 Surfactant P20, pH 7.4, 1% DMSO, starting at 100 μM with gradient of ten two-fold dilutions using solvent correction mode.
FIGS. 2C, 3C, 4C, 5C, 6C, 7C, 8C, 9C, 10C, 11C, and 12C provide SPR response curves for the cyclic oligopeptides generated in Example 1, wherein the x-axis represents time of reaction and y-axis represents altitude of response (Response Units).

FIG. 3D = assay: FIG. 3D
Protocol: Table printed on a drawing sheet, FIG. 3D
The patent's description of the figure: FIG. 3A provides the MS spectrum for Compound 2. FIG. 3B provides the HPLC chromatogram for Compound 2. FIG. 3C provides SPR assay curves showing the binding affinity of Compound 2 for IL-13, the x-axis represents time of reaction and y-axis represents altitude of response (Response Units). FIG. 3D illustrates skin permeation rate of Compound 2 for up to 24 hours. FIG. 3E illustrates average permeability coefficient (Kp) of Compound 2 for 1, 2, 4, 8, 12 and 24 hours.
First reader's note: The substance name is taken from the legend of the plot printed above the table; the values are three replicate permeation rates, their average and their range.

FIG.4D = assay: FIG.4D
Protocol: Table printed on a drawing sheet, FIG.4D
The patent's description of the figure: FIG. 4A provides the MS spectrum for Compound 3. FIG. 4B provides the HPLC chromatogram for Compound 3. FIG. 4C provides SPR assay curves showing the binding affinity of Compound 3 for IL-13, the x-axis represents time of reaction and y-axis represents altitude of response (Response Units). FIG. 4D illustrates skin permeation rate of Compound 3 for up to 24 hours. FIG. 4E illustrates average permeability coefficient (Kp) of Compound 3 for 1, 2, 4, 8, 12 and 24 hours.
First reader's note: The substance name is printed only in the legend of the plot above the table; columns 2 to 4 are three replicate permeation measurements.

FIG. 5D = assay: FIG. 5D
Protocol: Table printed on a drawing sheet, FIG. 5D
The patent's description of the figure: FIG. 5A provides the MS spectrum for Compound 4. FIG. 5B provides the HPLC chromatogram for Compound 4. FIG. 5C provides SPR assay curves showing the binding affinity of Compound 4 for IL-13, the x-axis represents time of reaction and y-axis represents altitude of response (Response Units). FIG. 5D illustrates skin permeation rate of Compound 4 for up to 24 hours. FIG. 5E illustrates average permeability coefficient (Kp) of Compound 4 for 1, 2, 4, 8, 12 and 24 hours.
First reader's note: The substance name is taken from the legend of the plot above the table on the same sheet; the values are skin permeation rates over time.

FIG. 6D = assay: FIG. 6D
Protocol: Table printed on a drawing sheet, FIG. 6D
The patent's description of the figure: FIG. 6A provides the MS spectrum of Compound 5. FIG. 6B provides the HPLC chromatogram for Compound 5. FIG. 6C provides SPR assay curves showing the binding affinity of Compound 5 for IL-13, the x-axis represents time of reaction and y-axis represents altitude of response (Response Units). FIG. 6D illustrates skin permeation rate of Compound 5 for up to 24 hours. FIG. 6E illustrates average permeability coefficient (Kp) of Compound 5 for 1, 2, 4, 8, 12 and 24 hours.
First reader's note: The substance name Compound 5 comes from the legend of the plot printed above the table; the values are three replicate permeation measurements with their average and range.

FIG. 7D = assay: FIG. 7D
Protocol: Table printed on a drawing sheet, FIG. 7D
The patent's description of the figure: FIG. 7A provides the MS spectrum for Compound 6. FIG. 7B provides the HPLC chromatogram for Compound 6. FIG. 7C provides SPR assay curves showing the binding affinity of Compound 6 for IL-13, the x-axis represents time of reaction and y-axis represents altitude of response (Response Units). FIG. 7D illustrates skin permeation rate of Compound 6 for up to 24 hours. FIG. 7E illustrates average permeability coefficient (Kp) of Compound 6 for 1, 2, 4, 8, 12 and 24 hours.
First reader's note: The substance name Compound 6 is taken from the legend of the plot printed above the table on the same sheet.

Sequence of Human IL-13 (P35225 25-146): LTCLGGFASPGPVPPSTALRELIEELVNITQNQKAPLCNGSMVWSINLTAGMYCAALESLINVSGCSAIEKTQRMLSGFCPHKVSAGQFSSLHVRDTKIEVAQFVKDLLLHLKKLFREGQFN

| Permeation Avg. (%) (FIG. 5D) | Permeation Avg. (%) (FIG. 6D) | SMILES | Permeation Avg. (%) (FIG. 2D) | Average Permeation Rate After 1 Hour (%) [1] | Average Permeation Rate After 24 Hours (%) [1] | Papp at 1 h, 1 mg/mL [1] | Papp at 24 h, 1 mg/mL [1] | Kd (Human IL-13) | Permeation Avg. (%) (FIG. 3D) | Permeation Avg. (%) (FIG.4D) | Permeation Avg. (%) (FIG. 7D) |
| --- | --- | --- | --- | --- | --- | --- | --- | --- | --- | --- | --- |
| – | – | CC(C)[C@H]1NC(=O)[C@@H](Cc2ccccc2)NC(=O)[C@@H](CCCNC(=N)N)NC(=O)[C@@H]2CCCN2C(=O)[C@H](CCC(=O)O)NC(=O)[C@H](Cc2ccc(O)cc2)NC1=O [Compound 1, D-Arg D-Phe D- Val Tyr Glu Pro] (cyclo(EP[dR][dF][dV]Y)) | 23.80% and 30.38% and 34.53% and 39.28% | 18.54% | 42.06% | 11.1 ×10⁻⁶ cm/s | > 0.0278 ×10⁻⁶ cm/s | 16 µM | – | – | – |
| – | – | CC(C)[C@H]1NC(=O)[C@H]([C@@H](C)O)NC(=O)[C@H](CCCNC(=N)N)NC(=O)[C@H]2CCCN2C(=O)[C@@H](Cc2ccccc2)NC(=O)[C@H](CCC(=O)O)NC1=O [Compound 2, Arg Thr D-Val Glu D-Phe D-Pro] (cyclo(E[dF][dP]RT[dV])) | – | 14.62% | 30.51% | 8.69 ×10⁻⁶ cm/s | – | 17.4 µM | 18.57% and 23.21% and 25.36% and 28.50% | – | – |
| – | – | CC(C)[C@H]1NC(=O)[C@@H]([C@H](C)O)NC(=O)[C@H](CCC(=O)O)NC(=O)[C@H]2CCCN2C(=O)[C@H]2CCCN2C(=O)[C@H](Cc2c[nH]c3ccccc23)NC1=O [Compound 3, Glu D-Thr D-Val Trp D-Pro D-Pro] (cyclo(E[dT][dV]W[dP][dP])) | – | 19.61% | 36.59% | 11.7 ×10⁻⁶ cm/s | – | 22.8 µM | – | 24.16% and 28.65% and 31.31% and 34.61% | – |
| 21.81% and 27.10% and 30.14% and 33.22% | – | CC(C)[C@H]1NC(=O)[C@H](CCC(=O)O)NC(=O)[C@H](CCCNC(=N)N)NC(=O)[C@H]2CCCN2C(=O)[C@H]2CCCN2C(=O)[C@H](Cc2c[nH]c3ccccc23)NC1=O [Compound 4, Arg Glu D-Val Trp D-Pro D-Pro] (cyclo(E[dV]W[dP][dP]R)) | – | 17.28% | 35.59% | 10.3 ×10⁻⁶ cm/s | > 0.0278 ×10⁻⁶ cm/s | 26.2 µM | – | – | – |
| – | 29.54% and 37.22% and 40.94% and 45.90% | CC(C)[C@@H]1NC(=O)[C@H](Cc2c[nH]c3ccccc23)NC(=O)[C@H]2CCCN2C(=O)[C@H]2CCCN2C(=O)[C@H](CCC(=O)O)NC(=O)[C@H](CCCNC(=N)N)NC1=O [Compound 5, Trp Val Arg Glu D-Pro D-Pro] (cyclo(E[dP][dP]WVR)) | – | – | 48.73% | 13.4 ×10⁻⁶ cm/s | – | 47.1 µM | – | – | – |
| – | – | CC(C)[C@H]1NC(=O)[C@@H]([C@H](C)O)NC(=O)[C@H](CCC(=O)O)NC(=O)[C@H](CCCNC(=N)N)NC(=O)[C@H](Cc2ccc(O)cc2)NC(=O)[C@H]2CCCN2C1=O [Compound 6, Tyr Arg Glu D-Thr D-Val D-Pro] (cyclo(E[dT][dV][dP]YR)) | – | 15.34% | 33.86% | 9.14 ×10⁻⁶ cm/s | – | 55.4 µM | – | – | 22.01% and 26.17% and 29.25% and 31.77% |
